In assay [1] the target is T1, HEK293 transfected with human DDR2 (Homo sapiens, UniProt Q16832).
T1 construct: expressed in transfected cells; host or cells: HEK293 (PLT460F_(DDR2)-P7-1)
T1 sequence (Q16832 22-855): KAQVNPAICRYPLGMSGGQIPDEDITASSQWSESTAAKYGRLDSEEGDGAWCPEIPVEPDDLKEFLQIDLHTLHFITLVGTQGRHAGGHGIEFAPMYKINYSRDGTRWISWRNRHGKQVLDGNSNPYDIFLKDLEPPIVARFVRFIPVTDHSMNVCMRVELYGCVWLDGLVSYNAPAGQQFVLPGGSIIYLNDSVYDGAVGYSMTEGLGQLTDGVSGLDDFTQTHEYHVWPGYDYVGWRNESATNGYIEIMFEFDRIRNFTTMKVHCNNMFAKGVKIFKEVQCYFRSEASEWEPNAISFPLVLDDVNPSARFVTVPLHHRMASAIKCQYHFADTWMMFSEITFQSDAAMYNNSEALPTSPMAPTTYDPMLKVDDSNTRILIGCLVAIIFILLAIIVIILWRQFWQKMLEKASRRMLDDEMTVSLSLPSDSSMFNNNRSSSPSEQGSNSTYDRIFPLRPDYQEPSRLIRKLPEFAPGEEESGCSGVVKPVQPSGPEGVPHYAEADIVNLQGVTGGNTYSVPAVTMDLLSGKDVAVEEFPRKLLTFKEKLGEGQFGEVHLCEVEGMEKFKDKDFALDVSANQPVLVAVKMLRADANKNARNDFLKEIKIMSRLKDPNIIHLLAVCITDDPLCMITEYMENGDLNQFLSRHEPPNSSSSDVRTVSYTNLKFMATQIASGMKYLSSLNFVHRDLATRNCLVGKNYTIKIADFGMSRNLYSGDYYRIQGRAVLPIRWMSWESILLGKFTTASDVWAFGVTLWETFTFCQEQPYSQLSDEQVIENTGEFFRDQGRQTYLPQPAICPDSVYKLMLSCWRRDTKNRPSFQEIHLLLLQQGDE
The assay is described as follows: Phospho-DDR2 cellular assay (collagen II induced DDR2 phosphorylation, ELISA). The format is cell-based. The conditions noted are these: cellular phospho-DDR2; read-out: IC50 [p-DDR2]. In short, it runs like this: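 Cells seeded 48 h in 10% FBS, serum-starved 8 h, then given compound (5% DMSO) with 50 μg/ml chicken collagen II for 16 h at 37 °C. Lysates captured on anti-DDR2 antibody plates; phospho-DDR2 detected with HRP anti-phosphotyrosine antibody by chemiluminescence.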

Assay [2] addresses T2, His-tagged human recombinant DDR-2 kinase domain (His-TEV-DDR2 467-855 aa) (Homo sapiens, UniProt Q16832).
T2 construct: His-TEV-DDR2 467-855 aa
T2 sequence (Q16832 467-855): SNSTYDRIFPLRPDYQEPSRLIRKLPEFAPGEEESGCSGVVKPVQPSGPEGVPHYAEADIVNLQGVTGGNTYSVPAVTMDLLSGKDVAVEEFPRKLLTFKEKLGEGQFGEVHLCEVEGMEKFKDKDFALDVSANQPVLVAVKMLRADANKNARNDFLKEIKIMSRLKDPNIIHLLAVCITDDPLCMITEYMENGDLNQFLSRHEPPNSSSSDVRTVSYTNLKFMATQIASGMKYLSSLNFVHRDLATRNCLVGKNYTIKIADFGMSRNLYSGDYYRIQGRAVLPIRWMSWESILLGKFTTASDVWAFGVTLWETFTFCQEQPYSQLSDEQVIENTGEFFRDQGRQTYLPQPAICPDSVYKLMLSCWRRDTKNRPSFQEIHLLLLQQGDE
The assay is described as follows: Autophosphorylation assay for biochemical activity testing of DDR2 (HTRF). Conditions: biochemical DDR2 autophosphorylation. A digest of the protocol:
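Phospho-tyrosine was detected by HTRF between XL665 anti-6His and cryptate anti-phosphotyrosine PT66 antibodies, using the emission ratio. Inhibition was referenced to the inhibitor-free reaction.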
A general note: In TR-FRET formats the signal depends on donor and acceptor labels being close together.

Each structure is given as a SMILES string.

As a reminder, the IC50 is the point on the concentration scale where inhibition reaches its midpoint. Take `CNC(=O)c1cc(Oc2ccc(CNC(=O)Nc3cc(Cl)c(C)cc3OCCN3CCNCC3)cc2)ccn1` [compound 179, 4-(4-{3-[5-Chloro-4-methyl-2-(2-piperazin-1-yl-ethoxy)-phenyl]-ureidomethyl}-phenoxy)-pyridine-2-carboxylic acid methylamide]: the figures for the IC50 in assay [1] and in assay [2] were 38 nM and 160 nM, respectively.

`CNC(=O)c1cc(Oc2ccc(CNC(=O)Nc3cc(Cl)c(C)cc3OCC3CCCN3)cc2)ccn1` (stereo not drawn) [compound 182, 4-(4-{3-[5-Chloro-4-methyl-2-(pyrrolidin-2-ylmethoxy)-phenyl]-ureidomethyl}-phenoxy)-pyridine-2-carboxylic acid methylamide]: the IC50 was found to be 30 nM in assay [1] and 59 nM in assay [2].

With `CNC(=O)c1cc(Oc2ccc(CNC(=O)Nc3cc(Cl)c(C)cc3OCCNC(C)C)cc2)ccn1` [compound 183, 4-(4-{3-[5-Chloro-2-(2-isopropylamino-ethoxy)-4-methyl-phenyl]-ureidomethyl}-phenoxy)-pyridine-2-carboxylic acid methylamide], the IC50 in assay [1] was found to be 35 nM; in assay [2], 89 nM.

`CNC(=O)c1cc(Oc2ccc(CNC(=O)Nc3cc(Cl)c(C)cc3OCC(C)(C)N)cc2)ccn1` [compound 185, 4-(4-{3-[2-(2-Amino-2-methyl-propoxy)-5-chloro-4-methyl-phenyl]-ureidomethyl}-phenoxy)-pyridine-2-carboxylic acid methylamide]: the IC50 in assay [1] turned out to be 175 nM; in assay [2] it was 460 nM.

In the case of `CNCCOc1ccc(S(=O)(=O)C(F)(F)F)cc1NC(=O)NCc1ccc(Oc2ccnc(C(=O)NC)c2)c(C)c1` [compound 189, 4-(2-Methyl-4-{3-[2-(2-methylamino-ethoxy)-5-trifluoromethanesulfonyl-phenyl]-ureidomethyl}-phenoxy)-pyridine-2-carboxylic acid methylamide], the IC50 in assay [1] is 115 nM; in assay [2], 270 nM.

For the molecule `CNC(=O)c1cc(Oc2ccc(CNC(=O)Nc3cc(C(F)(F)F)ccc3OCC(N)=O)cc2)ccn1` [compound 190, 4-{4-[3-(2-Carbamoylmethoxy-5-trifluoromethyl-phenyl)-ureidomethyl]-phenoxy}-pyridine-2-carboxylic acid methylamide], the IC50 in assay [1] came out at 40 nM; in assay [2], 120 nM.

Consider `CNC(=O)c1cc(Oc2ccc(CNC(=O)Nc3cc(C(F)(F)F)c(Cl)cc3OCCCN)cc2)ccn1` [compound 191, 4-(4-{3-[2-(3-Amino-propoxy)-4-chloro-5-trifluoromethyl-phenyl]-ureidomethyl}-phenoxy)-pyridine-2-carboxylic acid methylamide], for which the IC50 in assay [1] amounted to 106 nM; in assay [2] it was 590 nM.

Turning to `CNC(=O)c1cc(Oc2ccc(CNC(=O)Nc3ccc(C)cn3)cc2)ccn1` [compound 210, 4-{4-[3-(5-Methyl-pyridin-2-yl)-ureidomethyl]-phenoxy}-pyridine-2-carboxylic acid methylamide], the IC50 in assay [1] was found to be 1500 nM; in assay [2], 2000 nM.

Consider `CNC(=O)c1cc(Oc2ccc(CNC(=O)Nc3ccc(C)cn3)cc2C)ccn1` [compound 211, 4-{2-Methyl-4-[3-(5-methyl-pyridin-2-yl)-ureidomethyl]-phenoxy}-pyridine-2-carboxylic acid methylamide], for which the IC50 in assay [1] was found to be 630 nM; in assay [2], 780 nM.

For the molecule `CNC(=O)c1cc(Oc2ccc(CNC(=O)Nc3cc(C)ccn3)cc2)ccn1` [compound 212, 4-{4-[3-(4-Methyl-pyridin-2-yl)-ureidomethyl]-phenoxy}-pyridine-2-carboxylic acid methylamide], the IC50 is 380 nM in assay [1] and 570 nM in assay [2].

With `CNC(=O)c1cc(Oc2ccc(CNC(=O)Nc3cc(C)ccn3)cc2C)ccn1` [compound 213, 4-{2-Methyl-4-[3-(4-methyl-pyridin-2-yl)-ureidomethyl]-phenoxy}-pyridine-2-carboxylic acid methylamide], the IC50 stood at 205 nM in assay [1] and 400 nM in assay [2].

Consider `CNCCOc1ccc(C)cc1NC(=O)NCc1ccc(Oc2ccnc(C(=O)NC)c2)c(C)c1` [compound 215, 4-(2-Methyl-4-{3-[5-methyl-2-(2-methylamino-ethoxy)-phenyl]-ureidomethyl}-phenoxy)-pyridine-2-carboxylic acid methylamide], for which the IC50 in assay [1] is 40 nM; in assay [2] it was 69 nM.

`CNC(=O)c1cc(Oc2ccc(CNC(=O)Nc3cccnc3Cl)cc2)ccn1` [compound 226, 4-{4-[3-(2-Chloro-pyridin-3-yl)-ureidomethyl]-phenoxy}-pyridine-2-carboxylic acid methylamide]: the results for the IC50 in assay [1] and in assay [2] were 11000 nM and 19000 nM, respectively.

Consider `CNC(=O)c1cc(Oc2ccc(CNC(=O)Nc3ccc(OC)nc3)cc2)ccn1` [compound 227, 4-{4-[3-(6-Methoxy-pyridin-3-yl)-ureidomethyl]-phenoxy}-pyridine-2-carboxylic acid methylamide], for which the IC50 in assay [1] was 6300 nM; in assay [2] it was 5500 nM.

In the case of `CNC(=O)c1cc(Oc2ccc(CNC(=O)Nc3cc(Cl)ccc3OC)cc2F)ccn1` [compound 232, 4-{4-[3-(5-Chloro-2-methoxy-phenyl)-ureidomethyl]-2-fluoro-phenoxy}-pyridine-2-carboxylic acid methylamide], the IC50 was 19 nM in assay [1] and 52 nM in assay [2].
